The text below walks through data of PMC11011441, “Bioactive Compounds and Potential Health Benefits through Cosmetic Applications of Cherry Stem Extract” (International Journal of Molecular Sciences, 2024).

What all share (type): biochemical
One assay concerns elastase. The assay can be described thus: Elastase inhibition (MeOSuc-Ala-Ala-Pro-Val-pNa hydrolysis). The conditions noted are these: at 51.26 mg/L. On the procedure: (§1) The potential of cherry stem extract to inhibit hyaluronidase (HYALase), collagenase, elastase, tyrosinase, and xanthine oxidase enzymes was evaluated. The methods were carried out following previous studies.
The assessment of elastase enzyme inhibition was based on the release of p-nitroaniline resulting from the hydrolysis of the substrate MeOSuc-Ala-Ala-Pro-Val-pNa by elastase. The quantity of p-nitroaniline was gauged through absorbance readings at 405 nm. Elastatinal (ELA) was employed as the control for elastase inhibition. The control result was stated as % inhibition.
(§2) Results for cherry stem extract were presented as IC50 values at various extract concentrations, except for the enzyme tyrosinase, which was presented as IC55 value at various extract concentrations. All evaluations were performed in triplicate.

The next assay relates to hyaluronidase (HYALase). As to the kind of experiment: HYALase inhibition assay (turbidity at 600 nm). On the procedure:
The potential of cherry stem extract to inhibit hyaluronidase ([…]), collagenase, elastase, tyrosinase, and xanthine oxidase enzymes was evaluated. The methods were carried out following previous studies. The […] inhibition assay involves quantifying the reduction in transmitted light intensity caused by particles generated from the breakdown of hyaluronic acid (HYAL) by the […] enzyme. Absorbance readings were taken at 600 nm. EPI and GA were employed as controls to evaluate […] inhibition. The outcomes from the EPI and GA controls were reported as IC20 values. Results for cherry stem extract were presented as IC50 values at various extract concentrations, except for the enzyme tyrosinase, which was presented as IC55 value at various extract concentrations. All evaluations were performed in triplicate.

A short description of assay [1]: Nitric oxide scavenging (oxidation of DAF-2). Conditions: radical scavenging. The protocol: (§3) The ability of cherry stem extract to inhibit superoxide radical (O2^·−), hypochlorous acid (HOCl), and nitric oxide (NO^·) was evaluated. […] The scavenging properties of cherry stem extract and positive controls against the O2^·− radical were assessed colorimetrically by reduction of NBT to diformazan purple. The ability of the cherry stem extract to inhibit HOCl by inducing the oxidation of DHR to rhodamine was determined. The scavenging activity of cherry stem extract against NO^· was determined by oxidation of DAF-2. To assess the inhibition of O2^·−, NO^·, and HOCl radicals, epicatechin (EPI) and gallic acid (GA) were employed as reference controls. All results were expressed as IC50 value using different concentrations of cherry stem extract and all measurements were performed in triplicate.

A short description of assay [2]: Superoxide radical scavenging (reduction of NBT to diformazan). The protocol: as §3
Assay [3] in a line: Hypochlorous acid scavenging (oxidation of DHR to rhodamine). Conditions: radical scavenging. On the procedure:
as §3

For a further assay, the system named is tyrosinase. The assay can be described thus: Tyrosinase inhibition (Colorimetric Tyrosinase Inhibitor Detection Kit). The conditions noted are these: at 21.3 mg/L. On the procedure:
The potential of cherry stem extract to inhibit hyaluronidase ([…]), collagenase, elastase, tyrosinase, and xanthine oxidase enzymes was evaluated. The methods were carried out following previous studies. The evaluation of tyrosinase inhibition was conducted using a “Colorimetric Tyrosinase Inhibitor Detection Kit” sourced from Sigma-Aldrich, USA. Inhibition control was established with kojic acid (KA). The control outcome was represented as % inhibition. Results for cherry stem extract were presented as IC50 values at various extract concentrations, except for the enzyme tyrosinase, which was presented as IC55 value at various extract concentrations. All evaluations were performed in triplicate.

In the next assay the target is collagenase. The assay can be described thus: Collagenase inhibition (FALGPA degradation). The protocol:
as §1
The evaluation of collagenase enzyme activity is based on the colorimetric analysis of the degradation of the FALGPA substrate by the enzyme. The absorbance measurements were taken at 335 nm. Phenanthroline (PHE) was used as the control to assess collagenase inhibition, and the IC50 value was quantified as the control.
as §2

For `CC(C)C[C@H](NC(=O)N[C@H](C(=O)N[C@@H](CCC(N)=O)C(=O)N[C@@H](C)C=O)[C@@H]1CCNC(=N)N1)C(=O)O` [ELA, elastatinal], in the assay with elastase, the Elastase % inhibition is on record as 53 ± 5 ^4%.
Turning to `Oc1cc(O)c2c(c1)O[C@H](c1ccc(O)c(O)c1)[C@H](O)C2` [EPI, epicatechin], the “HYALase inhibitory concentration at 20% (IC20)” value with hyaluronidase (HYALase) is 167 ± 6 ^5 mg/L. For the same compound, the “NO^· inhibitory concentration at 50%” value in assay [1] came out at 0.87 ± 0.02 mg/L. Further, the “O2^·− inhibitory concentration at 50%” value in assay [2] was determined as 70 ± 5 mg/L. The “HOCl inhibitory concentration at 50%” value in assay [3] stood at 0.18 ± 0.01 mg/L.
In the case of `O=C(O)c1cc(O)c(O)c(O)c1` [GA, gallic acid], the “HYALase inhibitory concentration at 20% (IC20)” value with hyaluronidase (HYALase) was 102 ± 4 ^5 mg/L. The “NO^· inhibitory concentration at 50%” value in assay [1] was found to be 1.4 ± 0.3 mg/L. The “O2^·− inhibitory concentration at 50%” value in assay [2] was found to be 50 ± 3 mg/L. Moreover, the “HOCl inhibitory concentration at 50%” value in assay [3] is reported as 3.8 ± 0.3 mg/L.
`O=c1cc(CO)occ1O` [KA, Kojic acid]: the Tyrosinase % inhibition in the assay with tyrosinase is given as 49 ± 6 ^3%.
In the case of `c1cnc2c(c1)ccc1cccnc12` [PHE, 1, 10-phenanthroline], the “Collagenase inhibitory concentration at 50%” value on collagenase amounted to 83 ± 2 mg/L.
